Source: patent publication US20170342061A1 (CHONGQING PHARMACEUTICAL INDUSTRIAL RESEARCH INSTITUTE CO., …, priority 2014, published 2017)

Test: Stability testing of crystal form I of Canagliflozin
Format: physicochemical
[1] = placed at 25 ± 2° C. and a humidity of RH92.5% for 30 days
[2] = placed at 40 ± 2° C. for 30 days
[3] = placed at 60 ± 2° C. for 30 days

Cc1ccc([C@@H]2O[C@H](CO)[C@@H](O)[C@H](O)[C@H]2O)cc1Cc1ccc(-c2ccc(F)cc2)s1 [crystal form I of Canagliflozin, 1-(β-D-glucopyranosyl)-4-methyl-3-[5-(4-fluorophenyl)-2-thienylmethyl]benzene]
HPLC change before placed (before being placed at 25 ± 2° C. and a humidity of RH92.5% for 30 days): 99.89%
HPLC change before placed (before being placed at 40 ± 2° C. for 30 days): 99.89%
HPLC change before placed (before being placed at 60 ± 2° C. for 30 days): 99.89%
stability (overall conclusion from the stability table): good stability
HPLC change after placed [1]: 99.89%
crystal form [1]: Crystal form I
whether the appearance changed [1]: No change
whether there being apparent moisture absorption [1]: No apparent
HPLC change after placed [2]: 99.88%
crystal form [2]: Crystal form I
whether the appearance changed [2]: No change
whether there being apparent moisture absorption [2]: No apparent
HPLC change after placed [3]: 99.87%
crystal form [3]: Crystal form I
whether the appearance changed [3]: No change
whether there being apparent moisture absorption [3]: No apparent
